Results as given in publication PMC7143862, “Prostaglandins Isolated from the Octocoral Plexaura homomalla: In Silico and In Vitro Studies Against Different Enzymes of Cancer” (Marine Drugs, 2020).
≈ marks a conversion by molar mass, not a printed value.

Experiments:
skin cancer cells = tested on: skin cancer cells; design: method as in PMID 30858059, PMID 28292936; conditions: cited from earlier work
[1] = tested on: L929 fibroblast cell line; assay: MTT cell proliferation assay, L929; format: cell-based; conditions: 48 h treatment, healthy mouse fibroblasts
Text: (§1) All materials and reagents for cell culture were purchased from Sigma Aldrich (Saint Louis, MS, USA). For the assay, two human cancer cell lines and two cell lines, one human and one mouse as controls, were used. The human breast cancer cell line (MDA-MB-231 ATCC®) and lung cancer cell line (A549 ATCC®) were maintained in Dulbecco’s modified Eagle medium (DMEM) supplemented with 10% of fetal bovine serum and 1% of penicillin. The primary human dermal fibroblasts from adult skin (HDFa ATCC®) and the cell line from mouse adipose tissue (L929 ATCC®) were maintained in Roswell Park Memorial Institute medium (RPMI) supplemented with 10% of fetal bovine serum and 1% of penicillin, all cells in incubator with 5% CO2 at 37 °C [25].
(§2) Antiproliferative studies were carried out using the modified MTT assay based on a previously published method. In this case, 100 μL of cell suspension from the tumor lines was seeded in 96-well plates with a cellular density of 20,000 cells/well and incubated with 5% CO2 at 37 °C to allow cell adhesion. After 48 h, the supernatant was discarded and the cells were treated with different concentrations (5, 10, 25, 50, and 100 μg/mL) of the natural compounds 1 and 2 and the semisynthetic derivatives 3–5 dissolved in an unsupplemented medium. The plate was incubated for 48 h with 5% CO2 at 37 °C. Subsequently, 100 μL of an MTT solution at 0.5 mg/mL was added to each well and placed back in the incubator for 2 h. The supernatant was removed and 100 μL of DMSO was added to incubate for 15 min. Finally, absorbance (OD) at 595 nm was measured on an iMark ™ Microplate reader (Bio-Rad, Hercules, CA, USA).
(§3) The cytotoxic activity was quantified by calculating the mean inhibitory concentration (IC50), normalizing the absorbance data and converting them into percentages of inhibition. With a nonlinear 4PL regression, the IC50 was found, as developed by Sebaugh, using the PrimsGraph Pad® program (GraphPad Software Inc., San Diego, CA, USA).

p38α-kinase = molecular target: T1, p38α-kinase (Homo sapiens, UniProt Q16539); assay: p38α Kinase Enzyme System, ADP-Glo luminescence; format: biochemical
T1 construct: purchased Promega Corporation
Text: Possibly due to a higher concentration of compounds that generate interaction with a site of the enzymes different from the active site, which leads to a lower inhibition, as explained by Abdel-Magid, where it is stated that most of the drugs are designed to join the primary active sites of the enzymes, known as orthostatic sites. However, these can also have secondary sites or allosteric, in which, at the time of the inhibitors join them, a secondary effect is generated causing an increase in enzymatic activity. Therefore, it was not possible to obtain an IC50 value and the results were analyzed by the area under the curve (AUC). This performs the integral of the function of the logarithm of the concentration vs. luminescence for each of the compounds, and in this way to be able to compare the activity between them.
(§4) For the assay of the enzymatic activity, the p38α Kinase Enzyme System (Promega Corporation, Madison, WI, USA) and Src Kinase Enzyme System (Promega Corporation, Madison, WI, USA) kits were used. In this case 25 μL of reaction were added to each well (in the final concentrations shown in Table 4), where 10 μL were from substrate solution (0.2 mg/mL substrate, ATP and 1 × buffer kinase (Promega Corporation)), 10 μL of kinase solution (kinase (Promega Corporation), 1 × buffer kinase (Promega Corporation) and nuclease-free water) and 5 μL of the compounds initially prepared at 1 mM in DMSO and performing serial dilutions in Buffer Kinase (Promega Corporation) from 10 μM to 0.625 μM according to protocol for the kits (Promega Corporation, 2018). The plates were left at room temperature for 1 h, then 25 μL of ADP-Glo ™ Reagent (Promega Corporation) were added, these were placed at room temperature again for 40 min. Finally, 50 μL of the kinase detection reagent will be added and left at room temperature for 45 min [28]. The measurement was made by means of luminescence in an integration time of 0.5 to 1 s in the GENios Plus microplate reader (Grödig/Salzburg, Austria).

topoisomerase IIα = molecular target: T2, topoisomerase IIα (Homo sapiens, UniProt P11388); assay: Topoisomerase IIα drug detection kit, kDNA agarose gel; format: biochemical; conditions: normalized with 1% DMSO
T2 construct: purchased TopoGen
Description: The Topoisomerase IIα drug detection kit (TopoGen, Buena Vista, VA, USA) was used. Reactions were made with 4 μL of reaction buffer (50 mM Tris-HCl, 5 mM ATP, 150 mM NaCl, 30 μg/mL bovine serum albumin, 0.5 mM dithiothreitol, 10 mM MgCl2), 1 μL of the enzyme topoisomerase IIα ([…], 2 units), 1 μL of the kDNA substrate (approximately 200 ng) and 1 μL of the compounds with activity at 10 μM, so that the final volume was 20 μL completing with nuclease-free water. These reactions were incubated at 37 °C for 30 min, and the reaction was terminated with 4 μL of stop buffer.

[2] = tested on: A549 lung cancer cell line; assay: MTT cell proliferation assay, A549; format: cell-based, human; conditions: lung cancer cells; for IC50: Homo sapiens, A549, 48 h treatment
Text: as §1, §2, §3

[3] = tested on: MDA-MB-231 breast cancer cell line; assay: MTT cell proliferation assay, MDA-MB-231; format: cell-based; conditions: Homo sapiens, 48 h treatment, breast cancer cells
Text: as §1, §2, §3

[4] = tested on: HDFa dermal fibroblast cell line; assay: MTT cell proliferation assay, HDFa; format: cell-based; conditions: 48 h treatment, healthy human dermal fibroblasts
Text: as §1, §2, §3

Src-kinase = molecular target: T3, Src-kinase (Homo sapiens, UniProt P12931); assay: Src Kinase Enzyme System, ADP-Glo luminescence; format: biochemical; conditions: for Src-kinase area under the curve (AUC): log concentration vs. luminescence, 10 to 0.625 μM, smaller area = more inhibition
T3 construct: purchased Promega Corporation
Text: On the other hand, there are several enzymes that may be involved in several types of cancer, such as non-receptor tyrosine kinase (c-Src) which belongs to the family of kinases and is expressed in all cell types, but its activity is related to advanced malignancies and an unfavorable prognoses of human cancers, so it is considered a molecular target for studies of potential inhibitors. As with the previous enzyme, similar behavior was obtained, so the area under the curve of each of the compounds was also calculated in order to know which of them generate greater inhibition.
as §4

[5] = tested on: lung cancer cells line (A549); design: method as in PMID 28635645; conditions: cited from earlier work

T2 sequence (P11388 whole entry): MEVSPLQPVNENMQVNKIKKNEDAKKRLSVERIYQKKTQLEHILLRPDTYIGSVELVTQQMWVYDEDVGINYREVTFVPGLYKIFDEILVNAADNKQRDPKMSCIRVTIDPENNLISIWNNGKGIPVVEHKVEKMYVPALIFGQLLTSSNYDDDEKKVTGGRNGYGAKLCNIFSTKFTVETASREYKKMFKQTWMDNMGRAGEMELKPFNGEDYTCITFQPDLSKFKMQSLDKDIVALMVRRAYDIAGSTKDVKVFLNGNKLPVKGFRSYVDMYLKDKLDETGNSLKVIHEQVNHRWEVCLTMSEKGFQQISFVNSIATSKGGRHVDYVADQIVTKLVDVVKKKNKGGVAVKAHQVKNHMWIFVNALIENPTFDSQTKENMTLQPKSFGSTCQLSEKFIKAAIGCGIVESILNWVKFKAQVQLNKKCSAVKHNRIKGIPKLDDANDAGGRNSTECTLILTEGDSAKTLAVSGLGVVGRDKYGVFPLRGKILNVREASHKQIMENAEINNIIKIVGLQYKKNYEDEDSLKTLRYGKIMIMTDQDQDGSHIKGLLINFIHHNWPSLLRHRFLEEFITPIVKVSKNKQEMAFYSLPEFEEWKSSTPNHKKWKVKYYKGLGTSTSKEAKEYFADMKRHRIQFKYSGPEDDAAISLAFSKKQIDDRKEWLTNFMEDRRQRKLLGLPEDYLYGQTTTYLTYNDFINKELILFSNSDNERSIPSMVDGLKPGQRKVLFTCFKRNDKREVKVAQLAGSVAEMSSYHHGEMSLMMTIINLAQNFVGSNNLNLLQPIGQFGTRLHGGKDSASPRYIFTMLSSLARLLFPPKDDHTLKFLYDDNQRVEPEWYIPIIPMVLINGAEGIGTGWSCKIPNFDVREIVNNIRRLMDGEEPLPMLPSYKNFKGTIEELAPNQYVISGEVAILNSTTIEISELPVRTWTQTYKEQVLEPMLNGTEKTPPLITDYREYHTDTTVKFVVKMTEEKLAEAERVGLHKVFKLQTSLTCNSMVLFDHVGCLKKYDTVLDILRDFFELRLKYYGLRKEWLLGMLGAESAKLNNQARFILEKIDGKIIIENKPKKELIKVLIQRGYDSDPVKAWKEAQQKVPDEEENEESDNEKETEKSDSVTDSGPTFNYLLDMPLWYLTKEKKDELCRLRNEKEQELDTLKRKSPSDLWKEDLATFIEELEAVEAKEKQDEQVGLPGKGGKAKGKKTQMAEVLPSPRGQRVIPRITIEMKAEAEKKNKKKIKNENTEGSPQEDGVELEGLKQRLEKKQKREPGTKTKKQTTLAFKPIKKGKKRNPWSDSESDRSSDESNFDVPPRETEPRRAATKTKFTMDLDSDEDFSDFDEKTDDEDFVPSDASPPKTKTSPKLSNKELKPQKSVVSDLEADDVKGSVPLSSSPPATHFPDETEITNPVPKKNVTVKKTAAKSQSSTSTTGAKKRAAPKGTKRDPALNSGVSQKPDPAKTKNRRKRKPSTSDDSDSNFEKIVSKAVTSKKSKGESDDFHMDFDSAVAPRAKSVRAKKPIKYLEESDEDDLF
T3 sequence (P12931 whole entry): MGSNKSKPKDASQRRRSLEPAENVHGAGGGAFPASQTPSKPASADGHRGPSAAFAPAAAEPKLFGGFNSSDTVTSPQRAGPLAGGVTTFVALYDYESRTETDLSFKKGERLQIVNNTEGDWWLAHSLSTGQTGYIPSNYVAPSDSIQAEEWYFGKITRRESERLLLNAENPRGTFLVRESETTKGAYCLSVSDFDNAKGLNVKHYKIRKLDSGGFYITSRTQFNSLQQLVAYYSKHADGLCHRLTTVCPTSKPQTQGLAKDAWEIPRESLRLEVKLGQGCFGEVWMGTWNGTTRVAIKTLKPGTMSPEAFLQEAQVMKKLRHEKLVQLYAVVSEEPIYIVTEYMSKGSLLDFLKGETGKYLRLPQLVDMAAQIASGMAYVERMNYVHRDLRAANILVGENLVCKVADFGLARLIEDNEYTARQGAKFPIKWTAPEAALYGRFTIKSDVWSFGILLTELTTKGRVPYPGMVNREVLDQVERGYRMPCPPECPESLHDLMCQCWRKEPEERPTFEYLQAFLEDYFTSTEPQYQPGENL
T1 sequence (Q16539 whole entry): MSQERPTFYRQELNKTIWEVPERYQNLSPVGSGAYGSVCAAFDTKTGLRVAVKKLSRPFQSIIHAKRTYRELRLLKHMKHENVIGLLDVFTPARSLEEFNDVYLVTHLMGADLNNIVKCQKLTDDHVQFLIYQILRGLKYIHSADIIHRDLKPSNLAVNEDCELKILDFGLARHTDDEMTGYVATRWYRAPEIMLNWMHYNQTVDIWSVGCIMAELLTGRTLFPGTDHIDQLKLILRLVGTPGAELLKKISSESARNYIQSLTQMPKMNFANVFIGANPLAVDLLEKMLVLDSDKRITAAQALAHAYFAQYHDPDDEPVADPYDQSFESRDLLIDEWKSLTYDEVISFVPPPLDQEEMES

Compound | IC50 (skin cancer cells) [µM] | IC50 [1] [µg/mL] | inhibition at 2.5 µM (p38α-kinase) [%] | inhibition at 10 µM (topoisomerase IIα) [%] | IC50 A549 ([2]; 48 h treatment) | IC50 [2] [µg/mL] | IC50 [3] [µg/mL] | IC50 [4] [µg/mL] | inhibition at 2.5 µM (Src-kinase) [%] | Src-kinase area under the curve (AUC) (Src-kinase) | p38α-kinase % inhibition (p38α-kinase; at 2.5 μM) [%] | IC50 [5] [µM]
CCCCC/C=C/C=C1/C(=O)C=CC1C/C=C\CCCC(=O)NCCO (stereo not shown) [15-deoxy-Δ^12,14-PGJ2-EA] | 20 |  |  |  |  |  |  |  |  |  |  | 
CCCCCC(/C=C/[C@H]1C=CC(=O)[C@@H]1C/C=C\CCCC(=O)OC)OC(C)=O (stereo partly shown) [Compound 1, (5Z,13E)-15-acetyl-oxy-9-oxo-prosta-5,10,13-trien-1-oic acid methyl ester] |  | 71.7 (≈ 184 µM) | 42 | 45 | ineffective | > 100 | 27.5 (≈ 70.5 µM) | 28.3 (≈ 72.4 µM) | < 40 | above 1500 |  | 
CCCCCC(O)/C=C/[C@H]1C=CC(=O)[C@@H]1C/C=C\CCCC(=O)O (stereo partly shown) [Compound 2, (5Z,13E) -15-hydroxy-9-oxoprosta 5,10,13 trien-1-oic acid] |  | 40.4 (≈ 121 µM) | 49 | 64 |  | 25.2 (≈ 75.3 µM) | 16.5 (≈ 49.2 µM) | 17.9 (≈ 53.4 µM) | 59 | 921 |  | 
CCCCCC(/C=C/[C@H]1CC[C@@H](O)[C@@H]1C/C=C\CCCC(=O)OC)OC(C)=O (stereo partly drawn) [Compound 3, (5Z,9β,13E)-15-acetyloxy-9-hydroxy-prosta-5,13-dien-1-oic acid methyl ester] |  | > 100 | 37 | 43 |  | > 100 | > 100 | > 100 | < 40 |  |  | 
CCCCCC(/C=C/[C@H]1CC[C@H](O)[C@@H]1C/C=C\CCCC(=O)OC)OC(C)=O (stereo partly drawn) [Compound 4, (5Z,9α,13E)-15-acetyloxy-9-hydroxy-prosta-5,13-dien-1-oic acid methyl ester] |  | 54.3 (≈ 138 µM) | 37 | 26 |  | > 100 | > 100 | 50.7 (≈ 128 µM) | < 40 |  |  | 
CCCCC[C@@H](O)/C=C/[C@H]1CCC(O)[C@@H]1C/C=C\CCCCO (stereo partly shown) [Compound 5, (5Z,13E)-1,9,15-triol-prosta-5,13-diene] |  | > 100 | 39 | 24 |  | > 100 | > 100 | > 100 | 46 |  | 36 | 
CCCCC[C@H](O)/C=C/[C@H]1C(=O)C[C@H](O)[C@@H]1C/C=C\CCCC(=O)NCCO [PGD2-EA] | 18 |  |  |  |  |  |  |  |  |  |  | 
COc1cccc2c1C(=O)c1c(O)c3c(c(O)c1C2=O)C[C@@](O)(C(=O)CO)C[C@@H]3O[C@H]1C[C@H](N)[C@H](O)[C@H](C)O1 [doxorubicin, reference compound] |  |  |  | 88 |  |  |  |  |  |  |  | 
sardysterol |  |  |  |  |  |  |  |  |  |  |  | 27.3
